{"source": "ChEMBL document CHEMBL1201862", "about": "“PubChem BioAssay data set” (2004)", "key": {"[1]": {"biological_target": "T1, SUMO-activating enzyme (Homo sapiens, UniProt Q9UBT2)", "T1 sequence (Q9UBE0 whole entry)": "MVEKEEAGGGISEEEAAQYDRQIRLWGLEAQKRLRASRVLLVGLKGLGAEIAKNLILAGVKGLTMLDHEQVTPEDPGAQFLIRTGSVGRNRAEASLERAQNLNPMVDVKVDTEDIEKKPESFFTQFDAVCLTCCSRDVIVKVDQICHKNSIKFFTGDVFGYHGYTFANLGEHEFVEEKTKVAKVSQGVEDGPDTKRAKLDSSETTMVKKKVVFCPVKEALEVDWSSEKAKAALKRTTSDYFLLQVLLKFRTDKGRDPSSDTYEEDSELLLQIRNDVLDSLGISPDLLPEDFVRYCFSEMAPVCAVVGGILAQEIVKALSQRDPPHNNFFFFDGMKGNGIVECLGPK", "T1 sequence (Q9UBT2 whole entry)": "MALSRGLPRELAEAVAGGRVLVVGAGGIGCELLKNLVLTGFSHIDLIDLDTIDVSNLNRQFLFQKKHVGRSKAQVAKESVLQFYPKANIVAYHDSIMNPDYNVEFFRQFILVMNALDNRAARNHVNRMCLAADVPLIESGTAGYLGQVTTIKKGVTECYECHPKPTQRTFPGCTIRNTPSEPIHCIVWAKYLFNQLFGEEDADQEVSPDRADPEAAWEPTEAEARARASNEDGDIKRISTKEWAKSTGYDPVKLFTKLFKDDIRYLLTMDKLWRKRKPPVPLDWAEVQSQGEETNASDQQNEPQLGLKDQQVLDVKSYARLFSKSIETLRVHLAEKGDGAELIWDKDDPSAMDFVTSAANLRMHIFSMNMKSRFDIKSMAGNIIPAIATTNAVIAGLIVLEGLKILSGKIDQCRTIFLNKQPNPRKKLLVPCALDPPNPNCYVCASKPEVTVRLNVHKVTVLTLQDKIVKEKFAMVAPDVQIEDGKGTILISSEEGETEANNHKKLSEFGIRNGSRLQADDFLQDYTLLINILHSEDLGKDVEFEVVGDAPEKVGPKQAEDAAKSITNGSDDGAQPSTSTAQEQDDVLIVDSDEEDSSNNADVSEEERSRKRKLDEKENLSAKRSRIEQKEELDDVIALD", "assay": "inhibitors of in vitro SUMOylation cascade, primary screen, biochemical, HTRF, uHTS (AID 2006)", "format": "protein-complex assay"}, "[2]": {"biological_target": "T2, Replicative DNA helicase DnaB (Mycobacterium tuberculosis, UniProt P9WMR3)", "T2 sequence (P9WMR3 whole entry)": "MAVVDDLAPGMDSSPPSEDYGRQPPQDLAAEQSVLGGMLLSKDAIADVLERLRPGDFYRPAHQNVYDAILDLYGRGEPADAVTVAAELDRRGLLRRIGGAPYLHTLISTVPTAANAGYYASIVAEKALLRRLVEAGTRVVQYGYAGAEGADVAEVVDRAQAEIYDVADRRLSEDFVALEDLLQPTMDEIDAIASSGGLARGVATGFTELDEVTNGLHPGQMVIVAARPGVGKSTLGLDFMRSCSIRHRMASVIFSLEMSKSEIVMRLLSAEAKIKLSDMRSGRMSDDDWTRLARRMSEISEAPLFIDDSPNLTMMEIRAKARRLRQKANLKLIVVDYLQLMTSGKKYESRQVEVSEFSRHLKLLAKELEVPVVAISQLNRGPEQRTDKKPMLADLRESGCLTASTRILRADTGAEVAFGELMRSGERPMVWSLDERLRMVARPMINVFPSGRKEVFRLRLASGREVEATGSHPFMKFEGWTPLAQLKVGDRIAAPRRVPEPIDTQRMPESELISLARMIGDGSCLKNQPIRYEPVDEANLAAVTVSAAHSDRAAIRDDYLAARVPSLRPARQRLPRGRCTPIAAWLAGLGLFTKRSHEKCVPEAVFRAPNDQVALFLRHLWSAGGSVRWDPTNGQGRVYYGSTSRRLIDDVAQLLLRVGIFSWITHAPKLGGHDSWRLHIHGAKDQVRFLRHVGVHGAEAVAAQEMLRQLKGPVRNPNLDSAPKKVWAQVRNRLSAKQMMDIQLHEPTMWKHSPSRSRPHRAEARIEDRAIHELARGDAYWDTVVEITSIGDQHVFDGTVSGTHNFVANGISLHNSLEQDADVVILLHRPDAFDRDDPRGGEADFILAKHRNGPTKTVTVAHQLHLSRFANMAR", "assay": "DnaB intein splicing inhibitors, dose response, biochemical, cell-free fluorescence (AID 449749)", "format": "functional"}, "[3]": {"biological_target": "Serine/threonine-protein phosphatase (Homo sapiens, UniProt Q9BPW0)", "assay": "PP5 phosphatase inhibitors, dose response, biochemical, fluorescence (AID 2395)"}, "[4]": {"biological_target": "T1, SUMO-activating enzyme", "assay": "SUMOylation inhibitor hit validation, confirmation, SUMOylation inhibitor project, biochemical, AlphaScreen (AID 2018)", "format": "functional"}, "[5]": {"biological_target": "Genome polyprotein (dengue virus type 2, UniProt P29990)", "assay": "Dengue-2 NS5 methyltransferase inhibitors, primary screen, biochemical, confirmation dose response (AID 588689)", "format": "functional"}, "[6]": {"biological_target": "SRSF protein kinase 1 (Homo sapiens, UniProt Q96SB4)", "format": "functional"}, "[7]": {"biological_target": "Serine/threonine-protein kinase PLK4 (Homo sapiens, UniProt O00444)", "format": "functional"}, "[8]": {"biological_target": "Fibroblast growth factor receptor 3 (Homo sapiens, UniProt P22607)", "format": "functional"}, "[9]": {"biological_target": "Homeodomain-interacting protein kinase 4 (Homo sapiens, UniProt Q8NE63)", "format": "functional"}, "[10]": {"biological_target": "Macrophage colony-stimulating factor 1 receptor (Homo sapiens, UniProt P07333)", "format": "functional"}, "[11]": {"biological_target": "Mitogen-activated protein kinase 1 (Homo sapiens, UniProt P28482)", "format": "functional"}, "[12]": {"biological_target": "Tyrosine-protein kinase JAK3 (Homo sapiens, UniProt P52333)", "format": "functional"}, "[13]": {"biological_target": "Serine/threonine-protein kinase D3 (Homo sapiens, UniProt O94806)", "sequence (O94806 whole entry)": "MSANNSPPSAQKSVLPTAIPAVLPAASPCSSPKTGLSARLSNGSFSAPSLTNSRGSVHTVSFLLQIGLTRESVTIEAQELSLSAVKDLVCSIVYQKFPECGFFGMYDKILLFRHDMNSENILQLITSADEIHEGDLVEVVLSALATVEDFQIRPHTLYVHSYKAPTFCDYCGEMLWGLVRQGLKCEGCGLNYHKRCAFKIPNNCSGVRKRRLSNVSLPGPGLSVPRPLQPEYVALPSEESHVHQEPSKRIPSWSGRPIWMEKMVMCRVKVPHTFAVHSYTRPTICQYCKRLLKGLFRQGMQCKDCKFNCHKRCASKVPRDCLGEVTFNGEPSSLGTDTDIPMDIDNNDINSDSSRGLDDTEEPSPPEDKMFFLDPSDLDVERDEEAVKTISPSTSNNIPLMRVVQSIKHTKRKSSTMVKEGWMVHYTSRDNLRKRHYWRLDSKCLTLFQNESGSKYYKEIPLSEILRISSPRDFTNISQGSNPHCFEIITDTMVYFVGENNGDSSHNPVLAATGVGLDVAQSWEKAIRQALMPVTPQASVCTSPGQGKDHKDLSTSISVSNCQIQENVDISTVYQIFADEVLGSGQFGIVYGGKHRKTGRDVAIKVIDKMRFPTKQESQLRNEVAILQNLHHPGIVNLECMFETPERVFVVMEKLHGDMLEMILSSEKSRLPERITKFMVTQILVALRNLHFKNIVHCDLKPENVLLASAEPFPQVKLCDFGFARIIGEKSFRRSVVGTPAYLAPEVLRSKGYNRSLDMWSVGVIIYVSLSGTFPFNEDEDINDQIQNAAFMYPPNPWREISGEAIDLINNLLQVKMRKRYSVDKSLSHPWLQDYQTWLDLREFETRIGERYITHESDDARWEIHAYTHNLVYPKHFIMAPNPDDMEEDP", "format": "functional"}, "[14]": {"biological_target": "Leukocyte tyrosine kinase receptor (Homo sapiens, UniProt P29376)", "assay": "Navigating the Kinome. Panel member name: LTK", "format": "functional"}, "[15]": {"biological_target": "Mitogen-activated protein kinase 14 (Homo sapiens, UniProt Q16539)", "sequence (Q16539 whole entry)": "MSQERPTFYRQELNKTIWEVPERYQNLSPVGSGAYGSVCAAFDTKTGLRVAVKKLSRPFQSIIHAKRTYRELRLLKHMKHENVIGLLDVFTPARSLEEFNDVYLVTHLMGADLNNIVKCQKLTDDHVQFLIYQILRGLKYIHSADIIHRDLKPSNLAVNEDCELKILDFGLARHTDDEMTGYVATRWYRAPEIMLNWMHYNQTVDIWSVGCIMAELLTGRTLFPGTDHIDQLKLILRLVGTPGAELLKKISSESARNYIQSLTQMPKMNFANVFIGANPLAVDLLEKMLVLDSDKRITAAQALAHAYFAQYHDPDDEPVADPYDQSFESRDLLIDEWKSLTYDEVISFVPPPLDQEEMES", "format": "functional"}, "[16]": {"biological_target": "Tyrosine-protein kinase Blk (Homo sapiens, UniProt P51451)", "format": "functional"}, "[17]": {"biological_target": "Rho-associated protein kinase 1 (Homo sapiens, UniProt Q13464)", "format": "functional"}, "[18]": {"biological_target": "MAP kinase-interacting serine/threonine-protein kinase 2 (Homo sapiens, UniProt Q9HBH9)", "format": "functional"}, "[19]": {"biological_target": "Proto-oncogene tyrosine-protein kinase receptor Ret (Homo sapiens, UniProt P07949)", "sequence (P07949 whole entry)": "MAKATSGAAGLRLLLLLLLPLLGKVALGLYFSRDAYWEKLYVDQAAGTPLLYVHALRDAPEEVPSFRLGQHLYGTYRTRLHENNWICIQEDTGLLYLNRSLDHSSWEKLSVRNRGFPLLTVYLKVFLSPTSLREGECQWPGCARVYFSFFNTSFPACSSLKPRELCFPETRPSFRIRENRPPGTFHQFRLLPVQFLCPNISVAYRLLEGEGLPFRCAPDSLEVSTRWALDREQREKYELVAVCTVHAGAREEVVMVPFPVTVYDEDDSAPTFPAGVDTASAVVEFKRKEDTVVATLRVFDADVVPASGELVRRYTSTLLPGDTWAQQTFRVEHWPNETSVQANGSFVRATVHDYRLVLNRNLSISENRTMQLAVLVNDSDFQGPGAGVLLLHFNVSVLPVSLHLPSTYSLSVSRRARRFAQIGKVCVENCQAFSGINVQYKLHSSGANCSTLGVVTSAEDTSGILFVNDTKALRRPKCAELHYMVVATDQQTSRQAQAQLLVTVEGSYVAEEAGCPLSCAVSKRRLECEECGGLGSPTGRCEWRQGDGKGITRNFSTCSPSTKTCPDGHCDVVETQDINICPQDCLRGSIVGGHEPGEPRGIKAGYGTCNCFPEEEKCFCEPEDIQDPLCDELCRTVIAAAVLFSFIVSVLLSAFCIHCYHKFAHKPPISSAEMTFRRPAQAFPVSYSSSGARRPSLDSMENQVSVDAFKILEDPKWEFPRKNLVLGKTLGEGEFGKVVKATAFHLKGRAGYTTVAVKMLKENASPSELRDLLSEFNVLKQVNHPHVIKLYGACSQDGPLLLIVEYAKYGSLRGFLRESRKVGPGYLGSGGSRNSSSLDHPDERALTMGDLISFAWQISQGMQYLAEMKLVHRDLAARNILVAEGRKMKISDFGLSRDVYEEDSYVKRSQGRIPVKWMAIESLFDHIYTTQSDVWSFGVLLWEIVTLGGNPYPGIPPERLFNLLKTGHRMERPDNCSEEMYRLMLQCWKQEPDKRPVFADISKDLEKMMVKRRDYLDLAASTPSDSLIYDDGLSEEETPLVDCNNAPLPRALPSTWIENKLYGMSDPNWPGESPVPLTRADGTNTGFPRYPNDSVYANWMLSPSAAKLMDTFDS", "format": "functional"}, "[20]": {"biological_target": "Protein kinase C gamma type (Homo sapiens, UniProt P05129)", "format": "functional"}, "[21]": {"biological_target": "Casein kinase II subunit alpha (Homo sapiens, UniProt P68400)", "sequence (P68400 whole entry)": "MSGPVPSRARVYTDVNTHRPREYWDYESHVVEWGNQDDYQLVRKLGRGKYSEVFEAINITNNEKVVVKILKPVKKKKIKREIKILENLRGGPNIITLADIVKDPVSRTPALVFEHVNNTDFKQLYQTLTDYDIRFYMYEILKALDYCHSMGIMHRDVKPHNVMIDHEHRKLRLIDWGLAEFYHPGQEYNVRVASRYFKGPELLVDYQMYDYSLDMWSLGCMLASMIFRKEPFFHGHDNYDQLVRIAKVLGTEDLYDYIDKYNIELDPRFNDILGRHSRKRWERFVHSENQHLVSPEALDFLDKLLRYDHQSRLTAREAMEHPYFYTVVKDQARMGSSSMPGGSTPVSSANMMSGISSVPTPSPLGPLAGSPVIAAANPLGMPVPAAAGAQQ", "format": "functional"}, "[22]": {"biological_target": "Calcium/calmodulin-dependent protein kinase type II subunit alpha (Homo sapiens, UniProt Q9UQM7)", "assay": "Navigating the Kinome. Panel member name: CAMK2A", "format": "functional"}, "[23]": {"biological_target": "Dual specificity protein kinase CLK2 (Homo sapiens, UniProt P49760)", "format": "functional"}, "[24]": {"biological_target": "Serine/threonine-protein kinase DCLK1 (Homo sapiens, UniProt O15075)", "format": "functional"}, "[25]": {"biological_target": "Glycogen synthase kinase-3 beta (Homo sapiens, UniProt P49841)", "sequence (P49841 whole entry)": "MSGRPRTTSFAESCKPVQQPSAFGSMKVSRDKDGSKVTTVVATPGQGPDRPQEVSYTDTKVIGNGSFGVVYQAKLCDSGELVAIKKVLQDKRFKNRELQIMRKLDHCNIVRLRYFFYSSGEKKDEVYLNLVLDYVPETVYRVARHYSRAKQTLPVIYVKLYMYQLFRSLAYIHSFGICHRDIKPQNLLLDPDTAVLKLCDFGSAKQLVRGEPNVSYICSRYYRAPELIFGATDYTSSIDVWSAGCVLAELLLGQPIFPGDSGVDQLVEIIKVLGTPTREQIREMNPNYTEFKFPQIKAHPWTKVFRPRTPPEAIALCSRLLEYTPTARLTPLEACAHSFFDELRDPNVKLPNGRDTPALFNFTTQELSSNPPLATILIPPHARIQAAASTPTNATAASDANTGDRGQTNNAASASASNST", "format": "functional"}, "[26]": {"biological_target": "Protein kinase C delta type (Homo sapiens, UniProt Q05655)", "format": "functional"}, "[27]": {"biological_target": "Serine/threonine-protein kinase 17A (Homo sapiens, UniProt Q9UEE5)", "format": "functional"}, "[28]": {"biological_target": "Glycogen synthase kinase-3 alpha (Homo sapiens, UniProt P49840)", "format": "functional"}, "[29]": {"biological_target": "Tyrosine-protein kinase Lyn (Homo sapiens, UniProt P07948)", "format": "functional"}, "[30]": {"biological_target": "Leucine-rich repeat serine/threonine-protein kinase 2 (Homo sapiens, UniProt Q5S007)", "format": "functional"}, "[31]": {"biological_target": "Tyrosine-protein kinase ABL1 (Homo sapiens, UniProt P00519)", "format": "functional"}, "[32]": {"assay": "inhibitors of intracellular T. cruzi replication, confirmation, NIH3T3 host cells, beta-gal luminescence (AID 2044);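 further: intracellular parasites grown in NIH/3T3 mouse fibroblasts as host cells; luminescent beta-galactosidase reporter signal from transgenic T. cruzi replicating inside host cells; inhibitors lower the luminescence signal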", "format": "functional, cell-based"}}, "note": "Calls of active or inactive are those of the source."}
{"smiles": "NS(=O)(=O)c1ccc(NC2=CC(=O)C(=O)c3ccccc32)cc1", "values": [{"measurement": "IC50", "setting": "[1]", "result": "9540 nM (active)"}, {"measurement": "AC50", "setting": "[2]", "result": "1840 nM (active)"}, {"measurement": "IC50", "setting": "[3]", "result": "> 67000 nM (not active)"}, {"measurement": "IC50", "setting": "[4]", "result": "2110 nM (active)"}, {"measurement": "IC50", "setting": "[5]", "result": "39000 nM (active)"}]}
{"smiles": "Clc1cc(-c2c[nH]c3ncccc23)nc(NC2CCCCC2)n1", "values": [{"measurement": "Ki", "setting": "[6]", "result": "794 nM (active)"}, {"measurement": "Ki", "setting": "[7]", "result": "> 3980 nM (inactive)"}, {"measurement": "Ki", "setting": "[8]", "result": "> 2000 nM (inactive)"}, {"measurement": "Ki", "setting": "[9]", "result": "1260 nM (active)"}, {"measurement": "Ki", "setting": "[10]", "result": "> 1580 nM (inactive)"}, {"measurement": "Ki", "setting": "[11]", "result": "398 nM (active)"}, {"measurement": "Ki", "setting": "[12]", "result": "> 3160 nM (inactive)"}, {"measurement": "Ki", "setting": "[13]", "result": "> 2000 nM (inactive)"}, {"measurement": "Ki", "setting": "[14]", "result": "> 2510 nM (inactive)"}, {"measurement": "Ki", "setting": "[15]", "result": "> 3980 nM (inactive)"}, {"measurement": "Ki", "setting": "[16]", "result": "> 1580 nM (inactive)"}, {"measurement": "Ki", "setting": "[17]", "result": "15.8 nM (active)"}, {"measurement": "Ki", "setting": "[18]", "result": "79.4 nM (active)"}, {"measurement": "Ki", "setting": "[19]", "result": "> 2000 nM (inactive)"}, {"measurement": "Ki", "setting": "[20]", "result": "1000 nM (active)"}, {"measurement": "Ki", "setting": "[21]", "result": "398 nM (active)"}, {"measurement": "Ki", "setting": "[22]", "result": "3160 nM (active)"}, {"measurement": "Ki", "setting": "[23]", "result": "> 1260 nM (inactive)"}, {"measurement": "Ki", "setting": "[24]", "result": "> 10000 nM (inactive)"}, {"measurement": "Ki", "setting": "[25]", "result": "> 1000 nM (inactive)"}, {"measurement": "Ki", "setting": "[26]", "result": "> 7940 nM (inactive)"}, {"measurement": "Ki", "setting": "[27]", "result": "1000 nM (active)"}, {"measurement": "Ki", "setting": "[28]", "result": "794 nM (active)"}, {"measurement": "Ki", "setting": "[29]", "result": "> 1580 nM (inactive)"}, {"measurement": "Ki", "setting": "[30]", "result": "> 2510 nM (inactive)"}, {"measurement": "Ki", "setting": "[31]", "result": "> 631 nM (inactive)"}]}
{"smiles": "CCC(=O)NC(c1ccccc1OC)c1ccc2cccnc2c1O", "note": "(configuration not stated)", "values": [{"measurement": "EC50", "setting": "[32]", "result": "951 nM (active)"}]}
